From US9643999B2 (Bristol-Myers Squibb Company, priority 2012, dated 2017)

Tests used:
HCV genotype 1a replicon = assay: HCV replicon luciferase reporter assay, genotype 1a (LE_1a); type: cell-based; conditions: Hepatitis C virus, 72 h; HUH-7 cells, genotype 1a H77 replicon, 3 days incubation, Renilla luciferase; read-out: LE_1a (EC50, range)
Source text: (§1) An HCV replicon whole cell system was established as described by Lohmann V, Korner F, Koch J, Herian U, Theilmann L, Bartenschlager R., Science 285(5424):110-3 (1999) and modified to introduce a luciferase reporter, as first described by Krieger et al (Krieger N, Lohmann V, and Bartenschlager R, J. Virol. 75(10):4614-4624 (2001)). cDNA encoding a humanized form of the Renilla luciferase gene and a linker sequence fused directly to the 3′-end of the luciferase gene were introduced into the replicon construct using an Asc1 restriction site located in core, directly upstream of the neomycin marker gene. The adaptive mutation at position 1179 (serine to isoleucine) was also introduced (Blight K J, Kolykhalov, A A, Rice, C M, Science 290(5498):1972-1974). A stable cell line constitutively expressing this HCV replicon construct was generated by first linearizing plasmid DNAs with ScaI. RNA transcripts were synthesized in vitro using the T7 MegaScript transcription kit (Ambion, Austin, Tex.) according to manufacturer's directions. In vitro transcripts of the cDNA were transfected into the human hepatoma cell line, HUH-7. […] Resulting cell lines were characterized for positive and negative strand RNA production and protein production over time.
A stable HCV replicon luciferase reporter cell line representing the genotype 1a H77 strain (Yanagi M, Purcell R H, Emerson S U, et al. Transcripts from a single full-length cDNA clone of hepatitis C virus are infectious when directly transfected into the liver of a chimpanzee. Proc Natl Acad Sci USA 1997; 94(16):8738-8743) was generated as described previously for the genotype 1b(Con1) replicon luciferase cell line. The replicon construct was modified by introducing mutations were introduced into the genes encoding the NS3 helicase domain (proline replaced by leucine at position 1496) and NS5A (serine to isoleucine at position 2204) to improve replication in cell culture.
(§2) HCV replicon luciferase assays were developed to monitor the inhibitory effects of compounds described in the disclosure on HCV genotypes 1a and 1b viral replication. HUH-7 cells, constitutively expressing the HCV replicon, were grown in Dulbecco's Modified Eagle Media (DMEM) (Gibco-BRL) containing 10% Fetal calf serum (FCS) (Sigma) and 1 mg/mL G418 (Gibco-BRL). Compounds were serially diluted 3 folds in DMSO for a twenty-point titration and subsequently transferred to sterile 384-well tissue-culture treated plates (Corning cat #3571). The plates were then seeded with 50 μL of cells at a density of 3.0×10^3 cells/well in DMEM containing 4% FCS (final DMSO concentration at 0.5%). After 3 days incubation at 37° C., cells were analyzed for Renilla Luciferase activity using the EnduRen as substrate (Promega cat #E6485). The EnduRen substrate was diluted in DMEM and then added to the plates to a final concentration of 7.5 μM. The plates were incubated for 2 hrs at 37° C. and then read immediately for 30 seconds with Viewlux Imager (PerkinElmer) using a luminescence program. To assess cytotoxicity of compounds, CC50 values were generated by multiplexing the EnduRen-containing plates with Cell Titer-Blue (Promega, cat #G8082). Cell-Titer Blue (3 μL) was added to each well and incubated for 8 hrs at 37° C. The fluorescence signal from each well was read, with an excitation wavelength at 525/10 nm and an emission wavelength of 598/10 nm, using the Viewlux Imager.
(§3) The EC50 values for compounds were calculated by using a four-parameter logistic equation: y=A+((B−A)/(1+((C/x)^D))), where A and B denotes minimal and maximal % inhibition, respectively, C is the EC50, D is the hill slope and x represents compound concentration.

HCV genotype 1b replicon = assay: HCV replicon luciferase reporter assay, genotype 1b (LE_1b); type: cell-based; conditions: Hepatitis C virus, 72 h; HUH-7 cells, genotype 1b (Con1) replicon, 3 days incubation, Renilla luciferase; read-out: LE_1b (EC50, range)
Source text: as §1, with “time. […]” for “time.”
as §2, §3

CC[C@@H]1C[C@H](C)CC/C=C\[C@@H]2C[C@@]2(C(=O)NS(=O)(=O)C2(C)CC2)NC(=O)[C@@H]2C[C@@H](Oc3ncc(N(C)C(=O)c4ccccc4)c4cc(OC)ccc34)CN2C(=O)[C@H]1NC(=O)OC(C)(C)C(F)(F)F [Compound 4248]
EC50 (HCV genotype 1a replicon): 1.01 to 5 nM | EC50 (HCV genotype 1b replicon): 1.01 to 5 nM

CC[C@@H]1C[C@H](C)CC/C=C\[C@@H]2C[C@@]2(C(=O)NS(=O)(=O)C2(C)CC2)NC(=O)[C@@H]2C[C@@H](Oc3ncc(-c4nccs4)c4cc(OC)ccc34)CN2C(=O)[C@H]1NC(=O)OC(C)(C)C [Compound 4255, tert-butyl((2R,6S,7R,9R,13aS,14aR,16aS,Z)-7-ethyl-2-((6-methoxy-4-(thiazol-2-yl)isoquinolin-1-yl)oxy)-9-methyl-14a-(((1-methylcyclopropyl)sulfonyl)carbamoyl)-5,16-dioxo-1,2,3,5,6,7,8,9,10,11,13a,14,14a,15,16,16a-hexadecahydrocyclopropa[e]pyrrolo[1,2-a][1,4]diazacyclopentadecin-6-yl)carbamate]
EC50 (HCV genotype 1a replicon): 1.01 to 5 nM | EC50 (HCV genotype 1b replicon): 0.51 to 1 nM

CC[C@@H]1C[C@H](C)CC/C=C\[C@@H]2C[C@@]2(C(=O)NS(=O)(=O)C2(C)CC2)NC(=O)[C@@H]2C[C@@H](Oc3ncc(-c4nccs4)c4cc(OC)ccc34)CN2C(=O)[C@H]1NC(=O)OC(C)(C)C(F)(F)F [Compound 4258]
EC50 (HCV genotype 1a replicon): 1.01 to 5 nM | EC50 (HCV genotype 1b replicon): 1.01 to 5 nM

CC[C@@H]1C[C@H](C)CC/C=C\[C@@H]2C[C@@]2(C(=O)NS(=O)(=O)C2(C)CC2)NC(=O)[C@@H]2C[C@@H](Oc3ncc(N(CC)C(=O)c4ccccc4)c4cc(OC)ccc34)CN2C(=O)[C@H]1NC(=O)OC(C)(C)C(F)(F)F [Compound 4264]
EC50 (HCV genotype 1a replicon): 1.01 to 5 nM | EC50 (HCV genotype 1b replicon): 1.01 to 5 nM

CC[C@@H]1C[C@H](C)CC/C=C\[C@@H]2C[C@@]2(C(=O)NS(=O)(=O)C2(C)CC2)NC(=O)[C@@H]2C[C@@H](Oc3ncc(-c4nc(C(C)(C)C)cs4)c4cc(OC)ccc34)CN2C(=O)[C@H]1NC(=O)OC(C)(C)C [Compound 4274, tert-butyl((2R,6S,7R,9R,13aS,14aR,16aS,Z)-2-((4-(4-(tert-butyl)thiazol-2-yl)-6-methoxyisoquinolin-1-yl)oxy)-7-ethyl-9-methyl-14a-(((1-methylcyclopropyl)sulfonyl)carbamoyl)-5,16-dioxo-1,2,3,5,6,7,8,9,10,11,13a,14,14a,15,16,16a-hexadecahydrocyclopropa[e]pyrrolo[1,2-a][1,4]diazacyclopentadecin-6-yl)carbamate]
EC50 (HCV genotype 1a replicon): 5.01 to 35 nM | EC50 (HCV genotype 1b replicon): 1.01 to 5 nM

CC[C@@H]1C[C@H](C)CC/C=C\[C@@H]2C[C@@]2(C(=O)NS(=O)(=O)C2(C)CC2)NC(=O)[C@@H]2C[C@@H](Oc3ncc(-c4nc(C(C)(C)C)cs4)c4cc(OC)ccc34)CN2C(=O)[C@H]1NC(=O)OC(C)(C)C(F)(F)F [Compound 4275]
EC50 (HCV genotype 1a replicon): 5.01 to 35 nM | EC50 (HCV genotype 1b replicon): 5.01 to 35 nM

CC[C@@H]1C[C@H](C)CC/C=C\[C@@H]2C[C@@]2(C(=O)NS(=O)(=O)C2CC2)NC(=O)[C@@H]2C[C@@H](Oc3ncc(-c4nc(C(C)(C)C)cs4)c4cc(OC)ccc34)CN2C(=O)[C@H]1NC(=O)OC(C)(C)C [Compound 4280, tert-butyl((2R,6S,7R,9R,13aS,14aR,16aS,Z)-2-((4-(4-(tert-butyl)thiazol-2-yl)-6-methoxyisoquinolin-1-yl)oxy)-14a-((cyclopropylsulfonyl)carbamoyl)-7-ethyl-9-methyl-5,16-dioxo-1,2,3,5,6,7,8,9,10,11,13a,14,14a,15,16,16a-hexadecahydrocyclopropa[e]pyrrolo[1,2-a][1,4]diazacyclopentadecin-6-yl)carbamate]
EC50 (HCV genotype 1a replicon): 5.01 to 35 nM | EC50 (HCV genotype 1b replicon): 1.01 to 5 nM

CC[C@@H]1C[C@H](C)CC/C=C\[C@@H]2C[C@@]2(C(=O)NS(=O)(=O)C2(C)CC2)NC(=O)[C@@H]2C[C@@H](Oc3cc(-n4ccnc4)nc4cc(OC)ccc34)CN2C(=O)[C@H]1NC(=O)OC(C)(C)C(F)(F)F [Compound 4281]
EC50 (HCV genotype 1a replicon): 5.01 to 35 nM | EC50 (HCV genotype 1b replicon): 5.01 to 35 nM

CC[C@@H]1C[C@H](C)CC/C=C\[C@@H]2C[C@@]2(C(=O)NS(=O)(=O)C2(C)CC2)NC(=O)[C@@H]2C[C@@H](Oc3cc(-n4ccnc4)c4ccc(OC)cc4n3)CN2C(=O)[C@H]1NC(=O)OC(C)(C)C(F)(F)F [Compound 4282]
EC50 (HCV genotype 1a replicon): 5.01 to 35 nM | EC50 (HCV genotype 1b replicon): 1.01 to 5 nM

CC[C@@H]1C[C@H](C)CC/C=C\[C@@H]2C[C@@]2(C(=O)NS(=O)(=O)C2(C)CC2)NC(=O)[C@@H]2C[C@@H](Oc3ncc(-c4cnco4)c4cc(OC)ccc34)CN2C(=O)[C@H]1NC(=O)OC(C)(C)C [Compound 4285, tert-butyl((2R,6S,7R,9R,13aS,14aR,16aS,Z)-7-ethyl-2-((6-methoxy-4-(oxazol-5-yl)isoquinolin-1-yl)oxy)-9-methyl-14a-(((1-methylcyclopropyl)sulfonyl)carbamoyl)-5,16-dioxo-1,2,3,5,6,7,8,9,10,11,13a,14,14a,15,16,16a-hexadecahydrocyclopropa[e]pyrrolo[1,2-a][1,4]diazacyclopentadecin-6-yl)carbamate]
EC50 (HCV genotype 1a replicon): 1.01 to 5 nM | EC50 (HCV genotype 1b replicon): 1.01 to 5 nM

CC[C@@H]1C[C@H](C)CC/C=C\[C@@H]2C[C@@]2(C(=O)NS(=O)(=O)C2CC2)NC(=O)[C@@H]2C[C@@H](Oc3ncc(C(=O)OC)c4cc(OC)ccc34)CN2C(=O)[C@H]1NC(=O)OC(C)(C)C(F)(F)F [Compound 4286, methyl 1-(((2R,6S,7R,9R,13aS,14aR,16aS,Z)-14a-((cyclopropylsulfonyl)carbamoyl)-7-ethyl-9-methyl-5,16-dioxo-6-((((1,1,1-trifluoro-2-methylpropan-2-yl)oxy)carbonyl)amino)-1,2,3,5,6,7,8,9,10,11,13a,14,14a,15,16,16a-hexadecahydrocyclopropa[e]pyrrolo[1,2-a][1,4]diazacyclopentadecin-2-yl)oxy)-6-methoxyisoquinoline-4-carboxylate]
EC50 (HCV genotype 1a replicon): 1.01 to 5 nM | EC50 (HCV genotype 1b replicon): 0.51 to 1 nM

CC[C@@H]1C[C@H](C)CC/C=C\[C@@H]2C[C@@]2(C(=O)NS(=O)(=O)C2(C)CC2)NC(=O)[C@@H]2C[C@@H](Oc3ncc(C(=O)OC)c4cc(OC)ccc34)CN2C(=O)[C@H]1NC(=O)OC(C)(C)C(F)(F)F [Compound 4287]
EC50 (HCV genotype 1a replicon): 1.01 to 5 nM | EC50 (HCV genotype 1b replicon): 1.01 to 5 nM

CC[C@@H]1C[C@H](C)CC/C=C\[C@@H]2C[C@@]2(C(=O)NS(=O)(=O)C2CC2)NC(=O)[C@@H]2C[C@@H](Oc3ncc(-c4nc(C(C)(C)C)cs4)c4cc(OC)ccc34)CN2C(=O)[C@H]1NC(=O)OC(C)(C)C(F)(F)F [Compound 4288]
EC50 (HCV genotype 1a replicon): 5.01 to 35 nM | EC50 (HCV genotype 1b replicon): 5.01 to 35 nM

CC[C@@H]1C[C@H](C)CC/C=C\[C@@H]2C[C@@]2(C(=O)NS(=O)(=O)C2(C)CC2)NC(=O)[C@@H]2C[C@@H](Oc3ncc(-c4cnco4)c4cc(OC)ccc34)CN2C(=O)[C@H]1NC(=O)OC(C)(C)C(F)(F)F [Compound 4291]
EC50 (HCV genotype 1a replicon): 1.01 to 5 nM | EC50 (HCV genotype 1b replicon): 0.51 to 1 nM

CC[C@@H]1C[C@H](C)CC/C=C\[C@@H]2C[C@@]2(C(=O)NS(=O)(=O)C2CC2)NC(=O)[C@@H]2C[C@@H](Oc3ncc(-c4cnco4)c4cc(OC)ccc34)CN2C(=O)[C@H]1NC(=O)OC(C)(C)C(F)(F)F [Compound 4293]
EC50 (HCV genotype 1a replicon): 1.01 to 5 nM | EC50 (HCV genotype 1b replicon): 0.51 to 1 nM
